# Laboratory results from patent US6784201B2, “Benzothiepines having activity as inhibitors of ileal bile acid transport and taurocholate uptake” (G.D. Searle & Company, priority 1994, dated 2004).
# Target: T1, human IBAT (Homo sapiens, UniProt Q12908)
# T1 construct: expressed in transfected cells; host or cells: Baby hamster kidney (BHK) cells, clone H14
# T1 sequence (Q12908 1-348): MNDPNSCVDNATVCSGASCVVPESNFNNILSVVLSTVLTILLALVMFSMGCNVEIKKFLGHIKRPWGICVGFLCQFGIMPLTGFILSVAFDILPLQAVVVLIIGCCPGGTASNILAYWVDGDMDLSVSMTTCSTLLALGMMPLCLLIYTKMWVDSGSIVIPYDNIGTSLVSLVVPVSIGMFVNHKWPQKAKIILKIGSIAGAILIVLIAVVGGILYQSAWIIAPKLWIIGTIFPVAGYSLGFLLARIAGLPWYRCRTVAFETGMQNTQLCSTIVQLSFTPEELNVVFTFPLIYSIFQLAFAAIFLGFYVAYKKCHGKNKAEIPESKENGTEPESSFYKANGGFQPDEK
# Assay: In vitro assay of IBAT-mediated uptake of [14C]-taurocholate (TC) in H14 cells
# Type: cell-based
# Details: read-out: Human TC IC50
# How it was run: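 BHK cells stably expressing human IBAT (H14) were incubated 2 h at 37° C with compound and 3 μM final [14C]-taurocholate in DMEM (4.5 g/L glucose) plus 0.2% fatty acid-free BSA. After cold PBS washes, cell-associated radioactivity was measured by scintillation counting.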
row,IC50 [µM],Compound
1,0.12,C=CCOc1ccc(C2c3cc(N(C)C)ccc3S(=O)(=O)CC(CCCC)(CCCC)C2O)cc1Cl (stereo not drawn) [Example 1167]
2,0.12,CCCCC1(CCCC)CS(=O)(=O)c2ccc([N+](C)(C)C)cc2C(c2ccc(O)cc2)C1O (stereo not drawn) [Example 1168]
3,0.12,CCCCC1(CCCC)CS(=O)(=O)c2cc(N(C)C)ccc2C(c2ccccc2)C1O (stereo not drawn) [Example 1169]
4,0.14,CCCCC1(CCCC)CS(=O)(=O)c2ccc(N(C)C)cc2C(c2ccc(OS(=O)(=O)C(F)(F)F)cc2)C1O (stereo not drawn) [Example 1171]
5,0.14,CCCCC1(CCCC)CS(=O)(=O)c2ccc(OC)cc2C(c2ccncc2)C1O (stereo not drawn) [Example 1172]
6,0.15,CCCCC1(CC)CS(=O)(=O)c2ccc(-c3ccccc3)cc2C(c2cccc(OC)c2)C1O (stereo not drawn) [Example 1174]
7,0.17,CCCCC1(CC)CS(=O)(=O)c2ccc(S(C)(=O)=O)cc2C(c2cccc(OC)c2)C1O (stereo not drawn) [Example 1175]
8,0.18,CCCCC1(CCCC)CS(=O)(=O)c2c(F)cccc2C(c2ccc(F)cc2)C1O (stereo not drawn) [Example 1176]
9,0.18,CCCCN(C)c1ccc2c(c1)C(c1cccc(OC)c1)C(O)C(CCCC)(CCCC)CS2(=O)=O (stereo not drawn) [Example 1177]
10,0.19,CCCCC1(CCCC)CS(=O)(=O)c2ccc(N(C)C)cc2C(c2cccc(OS(=O)(=O)C(F)(F)F)c2)C1O (stereo not drawn) [Example 1178]
11,0.19,CCCCC1(CCCC)CS(=O)(=O)c2cc(OC)ccc2C(c2ccccc2)C1O (stereo not drawn) [Example 1179]
12,0.2,CCCCC1(CCCC)CS(=O)(=O)c2ccc([N+](C)(C)C)cc2C(c2ccccc2)C1O (stereo not drawn) [Example 1180]
13,0.22,CCCCN(C)c1ccc2c(c1)C(c1ccc(F)cc1)C(O)C(CCCC)(CCCC)CS2(=O)=O (stereo not drawn) [Example 1181]
14,0.25,CCCCC1(CCCC)CS(=O)(=O)c2ccc(OC)cc2C(c2ccc(N(C)C)cc2)C1O (stereo not drawn) [Example 1182]
15,0.28,CCCCC1(CCCC)CS(=O)(=O)c2ccc(F)cc2C(c2cccc(OC)c2)C1O (stereo not drawn) [Example 1183]
16,0.28,CCCCC1(CCCC)CS(=O)(=O)c2c(F)cc(F)cc2C(c2ccc(F)cc2)C1O (stereo not drawn) [Example 1184]
17,0.28,CCCCC1(CCCC)CS(=O)(=O)c2ccc(F)cc2C(c2ccc(F)cc2)C1O (stereo not drawn) [Example 1185]
18,0.3,CCCCC1(CCCC)CS(=O)(=O)c2c(F)cc(F)cc2C(c2ccccc2)C1O (stereo not drawn) [Example 1186]
19,0.32,CCCCC1(CCCC)CS(=O)(=O)c2ccc(C)cc2C(c2ccc(F)cc2)C1O (stereo not drawn) [Example 1187]
20,0.35,CCCCC1(CCCC)CS(=O)(=O)c2ccc([N+](C)(C)C)cc2C(c2ccc(OC)cc2)C1O (stereo not drawn) [Example 1188]
21,0.35,CCCCC1(CCCC)CS(=O)(=O)c2ccc([N+](C)(C)C)cc2C(c2ccc(F)c(F)c2)C1O (stereo not drawn) [Example 1189]
22,0.55,CCCCC1(CCCC)CS(=O)(=O)c2ccc(Br)cc2C(c2ccccc2Br)C1O (stereo not drawn) [Example 1190]
23,0.65,CCCCC1(CCCC)CS(=O)(=O)c2ccc(O)cc2C(c2ccc(N(C)C)cc2)C1O (stereo not drawn) [Example 1191]

row,IC50 [µM],Compound
1,1,CCCCC1(CCCC)CS(=O)(=O)c2ccc(O)cc2C(c2cccc(N(C)C)c2)C1O (stereo not drawn) [Example 1192]
2,1.6,CCCCC1(CCCC)CS(=O)(=O)c2ccc(N(C)C)cc2C(c2ccc(OCCOCCOCCOc3ccc(C4c5cc(N(C)C)ccc5S(=O)(=O)CC(CCCC)(CCCC)C4O)cc3F)c(F)c2)C1O (stereo not drawn) [Example 1194]
3,1.7,CCCCC1(CCCC)CS(=O)(=O)c2ccc(N3CCN(C)CC3)cc2C(c2ccc(OC)cc2)C1O (stereo not drawn) [Example 1195]
4,2,CCCCC1(CCCC)CS(=O)(=O)c2ccc(OC)cc2C(c2cccc([N+](C)(C)C)c2)C1O (stereo not drawn) [Example 1196]
5,2.2,CCCCC1(CC)CS(=O)(=O)c2ccc(N(C)C=O)cc2C(c2ccccc2)C1=O (stereo not drawn) [Example 1197]
6,2.5,CCCCC1(CCCC)CS(=O)(=O)c2ccc(OC)cc2C(c2cc[n+]([O-])cc2)C1O (stereo not drawn) [Example 1198]
7,4,CCCCC1(CCCC)CS(=O)(=O)c2ccc(N(C)C)cc2C(c2ccc(OCCOCCOCCOc3ccc(C4c5cc(N(C)C)ccc5S(=O)(=O)CC(CCCC)(CCCC)C4O)cc3)cc2)C1O (stereo not drawn) [Example 1199]
8,8.3,CCCCC1(CCCC)CS(=O)(=O)c2ccc(C)cc2CC1O (stereo not drawn) [Example 1201]
9,40,CCCCC1(CCCC)CS(=O)(=O)c2ccc(OC)cc2C(c2ccc([N+](C)(C)C)cc2)C1O (stereo not drawn) [Example 1202]
10,0.05,CCCCC1(CCCC)CS(=O)(=O)c2ccc(OC)cc2C(c2ccc(F)cc2)C1O (stereo not drawn) [Example 1204]
11,0.034,CCCCC1(CCCC)CS(=O)(=O)c2ccc(N(C)C)cc2C(c2ccc(OCCOCCOCCI)cc2)C1O (stereo not drawn) [Example 1205]
12,0.035,CCCCC1(CCCC)CS(=O)(=O)c2ccc(N(C)C)cc2C(c2cccc(C[N+](CC)(CC)CC)c2)C1O (stereo not drawn) [Example 1206]
13,0.068,CCCCC1(CCCC)CS(=O)(=O)c2ccc(N(C)C)cc2C(c2cc(Cl)cc(Cl)c2)C1O (stereo not drawn) [Example 1207]
14,0.042,CCCCC1(CCCC)CS(=O)(=O)c2ccc(N(C)C)cc2C(c2ccc(OC)cc2)C1O (stereo not drawn) [Example 1208]
15,0.14,CCCCC1(CCCC)CS(=O)(=O)c2ccc(N(C)C)cc2C(c2ccccc2N(C)C)C1O (stereo not drawn) [Example 1210]
16,0.75,CCCCC1(CC)CS(=O)(=O)c2ccc(N(C)C=O)cc2C(c2ccccc2)C1O (stereo not drawn) [Example 1214]
17,0.19,CCCCC1(CCCC)CS(=O)(=O)c2c(SC)cccc2C(c2ccc(OC)cc2)C1O (stereo not drawn) [Example 1215]
18,0.32,CCCCC1(CCCC)CS(=O)(=O)c2ccc(N(C)C)cc2C(c2ccc(C(=O)O)cc2)C1O (stereo not drawn) [Example 1217]
19,0.19,CCCCC1(CCCC)CS(=O)(=O)c2c(cccc2S(C)(=O)=O)C(c2ccc(OC)cc2)C1O (stereo not drawn) [Example 1218]
20,0.34,CCCCC1(CCCC)CS(=O)(=O)c2ccc(N(C)C)cc2C(c2ccc(OCCN(C)C)cc2)C1O (stereo not drawn) [Example 1219]
21,0.2,CCCCC1(CCCC)CS(=O)(=O)c2ccc(NC(C)C)cc2C(c2cccc(OC)c2)C1O (stereo not drawn) [Example 1220]
22,0.041,CCCCC1(CCCC)CS(=O)(=O)c2ccc(N(C)C)cc2C(c2ccc(C(=O)OC)cc2)C1O (stereo not drawn) [Example 1221]
23,0.065,CCCCC1(CCCC)CS(=O)(=O)c2ccc(NCC)cc2C(c2cccc(OC)c2)C1O (stereo not drawn) [Example 1222]

row,IC50 [µM],Compound
1,0.28,CCCCC1(CCCC)CS(=O)(=O)c2cc(Br)c(NC)cc2C(c2ccccc2)C1O (stereo not drawn) [Example 1223]
2,0.33,CCCCC1(CCCC)CS(=O)(=O)c2ccc(F)cc2C(c2cccc([N+](=O)[O-])c2)C1O (stereo not drawn) [Example 1224]
3,0.038,CCCCC1(CCCC)CS(=O)(=O)c2cc(Br)c(N(C)C)cc2C(c2ccc[nH]2)C1O (stereo not drawn) [Example 1228]
4,0.049,CCCCC1(CCCC)CS(=O)(=O)c2ccc(N(C)C)cc2C(c2ccc(O)c(Cl)c2)C1O (stereo not drawn) [Example 1229]
5,0.062,CCCCC1(CCCC)CS(=O)(=O)c2c(cc(F)cc2N(C)C)C(c2ccccc2)C1O (stereo not drawn) [Example 1230]
6,0.075,CCCCC1(CCCC)CS(=O)(=O)c2ccc(N(C)C)cc2C(c2ccc3cc(OC)ccc3c2)C1O (stereo not drawn) [Example 1231]
7,0.15,CCCCC1(CCCC)CS(=O)(=O)c2ccc(N(C)C)cc2C(c2cccc(C[N+](C)(C)CCN(C)C)c2)C1O (stereo not drawn) [Example 1233]
8,0.067,CCCCC1(CCCC)CS(=O)(=O)c2ccc(N(C)C)cc2C(c2cccc(C[N+](C)(C)C)c2)C1O (stereo not drawn) [Example 1234]
9,0.045,CCCCC1(CCCC)CS(=O)(=O)c2ccc(N(C)C)cc2C(c2cccc(OCCN(CC)CC)c2)C1O (stereo not drawn) [Example 1235]
10,0.05,CCCCC1(CCCC)CS(=O)(=O)c2ccc(N(C)C)cc2C(c2ccc(CBr)cc2)C1O (stereo not drawn) [Example 1236]
11,0.07,CCCCC1(CCCC)CS(=O)(=O)c2ccc(N(C)C)cc2C(c2ccc(OCC[N+](C)(C)CCOCCOCC[N+](C)(C)C)cc2)C1O (stereo not drawn) [Example 1237]
12,0.8,C=COCCOCCOCCOc1ccc(C2c3cc(N(C)C)ccc3S(=O)(=O)CC(CCCC)(CCCC)C2O)cc1F (stereo not drawn) [Example 1238]
13,0.035,CCCCC1(CCCC)CS(=O)(=O)c2ccc(N(C)C)cc2C(c2ccc(OCCOCCBr)c(F)c2)C1O (stereo not drawn) [Example 1239]
14,0.016,CCCCC1(CCCC)CS(=O)(=O)c2ccc(N(C)C)cc2C(c2ccc(OC)c(C)c2)C1O (stereo not drawn) [Example 1240]
15,0.047,CCCCC1(CCCC)CS(=O)(=O)c2ccc(N(C)C)cc2C(c2cccc(CN(C)C)c2)C1O (stereo not drawn) [Example 1241]
16,0.029,CCCCC1(CCCC)CS(=O)(=O)c2ccc(N(C)C)cc2C(c2ccc(OCCOCCOCCOCCCl)c(F)c2)C1O (stereo not drawn) [Example 1242]
17,0.63,CCCCC1(CCCC)CS(=O)(=O)c2ccc(N(C)C)cc2C(c2ccc(O)c(C[N+](C)(C)C)c2)C1O (stereo not drawn) [Example 1243]
18,0.32,CCCCC1(CCCC)CS(=O)(=O)c2ccc(N(C)C)cc2C(c2cccc([N+](C)(C)C)c2)C1O (stereo not drawn) [Example 1245]
19,0.018,CCCCC1(CCCC)CS(=O)(=O)c2ccc(N(C)C)cc2C(c2cccc(CBr)c2)C1O (stereo not drawn) [Example 1246]
20,0.017,CCCCC1(CCCC)CS(=O)(=O)c2ccc(N(C)C)cc2C(c2ccc3cc(O)ccc3c2)C1O (stereo not drawn) [Example 1247]
21,0.33,CCCCC1(CCCC)CS(=O)(=O)c2ccc(N(C)C)cc2C(c2ccc(O)c(CN(C)C)c2)C1O (stereo not drawn) [Example 1248]
22,10.2,CCCCC1(CCCC)CS(=O)(=O)c2ccc(N(C)C)cc2C(c2ccc(C[N+](C)(C)CCO)cc2)C1O (stereo not drawn) [Example 1249]
23,0.013,CCCCC1(CCCC)CS(=O)(=O)c2ccc(N(C)C)cc2C(c2cccc(N(C)C)c2)C1O (stereo not drawn) [Example 1250]
